Test results as given in patent publication US11865176B2, “Compositions and methods of modulating anti-tumor immunity” (Dana-Farber Cancer Institute, Inc., priority 2016, dated 2024).
Like-named read-outs stand apart in the source and are kept apart here.

Tested on: PD-1-overexpressing Jurkat cells
Assay: Small molecule screen: IL2 secretion (AlphaLISA) from stimulated PD-1-overexpressing Jurkat cells
Assay type: cell-based, human
Protocol: PD-1-overexpressing Jurkat cells were plated at a concentration of 100,000 cells/well in a total volume of 80 μl. […] Dynabeads conjugated to α-CD3, α-CD28, and α-PD-1 antibodies were added in 20 for a final assay volume of 100 with a final compound concentration of 3.3 μM and an 8:1 bead:cell ratio. Beads were conjugated to α-CD3/α-CD28/control IgG and added to wells containing DMSO-treated cells as a positive control, while beads conjugated to α-CD3/α-CD28/α-PD1 were added to wells containing DMSO-treated cells as a negative control. Supernatants from each well were analyzed for IL2 levels by AlphaLISA (Perkin Elmers) according to the manufacturer's protocol. Average and standard deviation values were calculated from the PD-1 controls (DMSO-treated cells stimulated with α-CD3/α-CD28/α-PD-1 beads); hits were defined as compounds scoring at least 3 standard deviations from the mean of the controls.
In addition to known negative regulators of IL-2 production (e.g. glycogen synthase kinase-3α/β (GSK3α/β) (24,25)), this screen identified cyclin-dependent kinases 4 and 6 inhibitors (CDK4/6i) as top hits (Table 1).

[1] = IL2 level, replicate 1, 3.3 μM compound, α-CD3/α-CD28/α-PD-1 beads
[2] = IL2 level, replicate 2, 3.3 μM compound, α-CD3/α-CD28/α-PD-1 beads
[3] = average of replicate Z scores, 3.3 μM compound

| Compound | Zscore_1 [1] | Zscore_2 [2] | Zscore_AVG [3] | Zscore_1 | Zscore_2 | Zscore_AVG |
| --- | --- | --- | --- | --- | --- | --- |
| O=C(Nc1ccc(Cl)cc1)c1ccccc1NCc1ccncc1 [VEGF Receptor Tyrosine Kinase Inhibitor II] | −1.404 | −0.1009 | −0.7522 |  |  |  |
| O=C1NC(=O)c2c1c1c3ccccc3n3c1c1c2c2ccccc2n1C1CCC3O1 [SB 218078] | −0.8723 | −1.561 | −1.217 |  |  |  |
| Cn1cnc2cc3c(Nc4cccc(Br)c4)ncnc3cc21 [BPIQ-I] | 0.6533 | 1.97 | 1.312 |  |  |  |
| CCn1cnc2c(Nc3cccc(Cl)c3)nc(N[C@@H]3CCCC[C@@H]3N)nc21 [Cdk1 Inhibitor, CGP74514A] | 1.595 | −1.02 | 0.2878 |  |  |  |
| Fc1ccc(-c2nc3n(c2-c2ccncc2)CCS3)cc1 [SKF-86002] | −0.4953 | −2.331 | −1.413 |  |  |  |
| Cdk Inhibitor, p35 | −1.994 | −1.733 | −1.864 |  |  |  |
| Cc1cc(C(C)Nc2ccccc2)c2nc(N3CCOCC3)cc(=O)n2c1 (stereo not drawn) [PI 3-Kβ Inhibitor VI, TGX-221] | 2.504 | 2.528 | 2.516 |  |  |  |
| Cn1cc(C2=C(c3cn(CCCSC(=N)N)c4ccccc34)C(=O)NC2=O)c2ccccc21 [Ro-31-8220] | −5.987 | −6.268 | −6.128 |  |  |  |
| CCN(CC)CCNC(=O)c1c(C)[nH]c(/C=C2\C(=O)Nc3ccc(Cl)cc32)c1C [SU11652] | 8.033 | −6.691 | 0.671 |  |  |  |
| c1ccc(-c2[nH]ncc2-c2ccnc3ccccc23)nc1 [TGF-b RI Kinase Inhibitor] | −0.7181 | −1.933 | −1.326 |  |  |  |
| CCCOc1ccc(/C=C2/SC(=O)NC2=O)cc1 [PIM1/2 Kinase Inhibitor VI] | −0.7695 | −1.561 | −1.165 |  |  |  |
| COc1cc(SC)ccc1C(=O)N1CCC(Cc2ccccc2)CC1 [p38 MAP Kinase Inhibitor VI, JX401] | −0.3753 | −0.9241 | −0.6497 |  |  |  |
| CN1C(=O)/C(=C2\Nc3ccccc3\C2=N/O)c2ccc(Br)cc21 [GSK-3 Inhibitor IX, Control, MeBIO] | 1.104 | 1.769 | 1.437 |  |  |  |
| CN([C@@H](Cc1ccc(OS(=O)(=O)c2cccc3cnccc23)cc1)C(=O)N1CCN(c2ccccc2)CC1)S(=O)(=O)c1cccc2cnccc12 [KN-62] | −0.2488 | −0.8434 | −0.5461 |  |  |  |
| O=c1c(-c2ccc(F)cc2)c(-c2ccncc2)[nH]n1-c1ccc(Cl)cc1 [p38 MAP Kinase Inhibitor] |  |  |  | −0.7181 | −1.986 | −1.352 |
| Nc1nc(Nc2ccc(S(N)(=O)=O)cc2)nn1C(=O)c1c(F)cccc1F [Aurora Kinase/Cdk Inhibitor] | −1.131 | −3.054 | −2.093 |  |  |  |
| Oc1ccc(-c2nc(-c3ccc(F)cc3)c(-c3ccncc3)[nH]2)cc1 [SB 202190] | −1.512 | −3.097 | −2.304 |  |  |  |
| NC(=O)Nc1sc(-c2ccccc2)cc1C(N)=O [IKK-2 Inhibitor VI] | −5.576 | −7.212 | −6.394 |  |  |  |
| O=C1NCCc2[nH]c(-c3ccncc3)cc21 [Cdc7/Cdk9 Inhibitor] | −9.816 | −10.33 | −10.08 |  |  |  |
| PIM1/2 Kinase Inhibitor V | −0.917 | 0.2008 | −0.3581 |  |  |  |
| MEK1/2 Inhibitor II | −8.274 | −7.766 | −8.02 |  |  |  |
| O=[N+]([O-])c1ccc(-c2nc(-c3ccc(F)cc3)c(-c3ccncc3)[nH]2)cc1 [PD 169316] | −0.1697 | 0.08497 | −0.04235 |  |  |  |
| Cc1cc(Nc2nc(-c3ccccc3)nc3ccccc23)n[nH]1 [GSK-3 Inhibitor XIII] | −2.535 | −3.925 | −3.23 |  |  |  |
| N#Cc1c(C2CCNCC2)cc(-c2c(O)cccc2OCC2CC2)nc1N [IKK-2 Inhibitor VIII] | −0.6795 | −0.365 | −0.5222 |  |  |  |

| Compound | Zscore_1 [1] | Zscore_2 [2] | Zscore_AVG [3] | Zscore_1 | Zscore_2 | Zscore_AVG |
| --- | --- | --- | --- | --- | --- | --- |
| N#CC(c1ccnc(NCCc2cccnc2)n1)c1nc2ccccc2s1 (stereo not drawn) [JNK Inhibitor V] | −0.3788 | 3.626 | 1.623 |  |  |  |
| O=C1NC(=O)C(c2cn(CCCO)c3ncccc23)=C1c1cnccn1 [GSK-3b Inhibitor XI] | 5.72 | 4.871 | 5.296 |  |  |  |
| CC[n+]1c(/C=C/N(C)c2ccccc2)n(-c2ccccc2)c2ccc(-c3nc4ccccc4s3)cc21.[I-] [Akt Inhibitor IV] | −5.269 | −6.844 | −6.057 |  |  |  |
| Cc1cncc2cccc(S(=O)(=O)N3CCCN(C(=O)CN)C[C@@H]3C)c12 [Rho Kinase Inhibitor IV] | −5.704 | −5.042 | −5.373 |  |  |  |
| CO[C@H]1C[C@@H]2CC[C@@H](C)[C@@](O)(O2)C(=O)C(=O)N2CCCC[C@H]2C(=O)O[C@H]([C@H](C)C[C@@H]2CC[C@@H](O)[C@H](OC)C2)CC(=O)[C@H](C)/C=C(\C)[C@@H](O)[C@@H](OC)C(=O)[C@H](C)C[C@H](C)/C=C/C=C/C=C/1C [Rapamycin] | −1.883 | −3.367 | −2.625 |  |  |  |
| O=C(NC(NC(=S)Nc1ccc(F)c([N+](=O)[O-])c1)C(Cl)(Cl)Cl)C(c1ccccc1)c1ccccc1 (stereo not drawn) [ATM/ATR Kinase Inhibitor] | −1.798 | −1.073 | −1.436 |  |  |  |
| PIM1 Kinase Inhibitor IV | −1.455 | −0.7294 | −1.092 |  |  |  |
| IKK Inhibitor VII | −6.154 | −3.033 | −4.594 |  |  |  |
| CC(=O)O[C@@H]1[C@@H](OC(C)=O)[C@@H](O)[C@H](Oc2c(-c3ccc(O)cc3)oc3cc(O)cc(O)c3c2=O)O[C@H]1C [RSK Inhibitor, SL0101] | 1.689 | −0.3488 | 0.67 |  |  |  |
| CN(C)CCCn1cc(C2=C(c3c[nH]c4ccccc34)C(=O)NC2=O)c2ccccc21 [Bisindolylmaleimide I] | −9.431 | −8.32 | −8.875 |  |  |  |
| p38 MAP Kinase Inhibitor VIII | −1.144 | −1.448 | −1.296 |  |  |  |
| CN1C(=O)C(Cc2c[nH]c3ccccc23)NC1=S (stereo not drawn) [Necrostatin-1] | −1.566 | 1.447 | −0.05934 |  |  |  |
| O=c1cc(-c2cccc3c2Sc2ccccc2S3)oc(N2CCOCC2)c1 [ATM Kinase Inhibitor] | 1.379 | 4.382 | 2.881 |  |  |  |
| CN1C(=O)C(c2c[nH]c3ccccc23)=C(c2c[nH]c3ccccc23)C1=O [Bisindolylmaleimide V] | −0.6214 | 1.109 | 0.2438 |  |  |  |
| O=C(O)C=Cc1cc(Br)c(Br)c(Br)c1Br [Casein Kinase II Inhibitor III, TBCA] | 1.017 | 1.548 | 1.282 |  |  |  |
| COc1cc2ncnc(Nc3ccc(OCc4ccccc4)cc3)c2cc1OC [EGFR/ErbB-2 Inhibitor] | 0.09156 | 4.015 | 2.053 |  |  |  |
| CCOc1cc2ncnc(Nc3cccc(Br)c3)c2cc1OCC [Compound 56] | −1.072 | −2.222 | −1.647 |  |  |  |
| CC(C)c1nn(-c2c(Cl)cccc2Cl)c2nc(Cc3ccc(OCCO)cc3)[nH]c(=O)c12 [Cdk/Crk Inhibitor] | −10.43 | −11.89 | −11.16 |  |  |  |
| O=c1cc(N2CCOCC2)nc2c3ccccc3ccn12 [Compound 401] | 2.829 | 15.49 | 9.162 |  |  |  |
| CSc1nc(-c2ccnc(NC(C)c3ccccc3)c2)c(-c2ccc(F)cc2)[nH]1 (stereo not drawn) [p38 MAP Kinase Inhibitor III] | −0.7009 | 0.6426 | −0.02917 |  |  |  |
| O=C(c1ccccc1)c1ccc(N2CCOCC2)cc1O [DNA-PK Inhibitor V] | −2.22 | −4.112 | −3.166 |  |  |  |
| N#C/C(=C(/N)Sc1ccc(N)cc1)c1ccccc1C(F)(F)F [MEK 1/2 Inhibitor] | −4.769 | −6.395 | −5.582 |  |  |  |
| Cl.Cl.N=C(N)NCCNS(=O)(=O)c1cccc2cnccc12 [HA 1004, Dihydrochloride] | 0.08457 | −0.6711 | −0.2933 |  |  |  |
| N#CCCc1ccc2c(c1)-c1[nH]c3ccc([N+](=O)[O-])cc3c1CC(=O)N2 [Alsterpaullone, 2-Cyanoethyl] | −5.269 | −7.447 | −6.358 |  |  |  |
